Measured values reported in article PMC11190223, “Identification of sulfakinin receptor regulating feeding behavior and hemolymph trehalose homeostasis in the silkworm, Bombyx mori” (Scientific Reports, 2024).
“Also recorded” adds a separate entry of the source. Where no end group is shown, it is not given here. [ ]: non-standard residue; d: D form. sY = N[C@@H](Cc1ccc(OS(=O)(=O)O)cc1)C(=O)O

What was measured:
DSK-R1 (CCKLR-17D3) = conditions: cited from earlier work
Source text: Insect SKs mediate their effects via G protein-coupled receptors (GPCRs) located on the cell surface membrane. The Drosophila SK receptor (DSK-R1, also known as CCKLR-17D3) emerged as the first cloned and characterized receptor for insect SKs, displaying high affinity for tyrosine-sulfated SK (sSK) and low affinity for nonsulfated SK (nsSK)[21]. Another receptor, CCKLR-17D1, identified in Drosophila, exclusively responds to sSKs, underscoring the critical role of the sulfated tyrosine residue in SKs for receptor interaction and activity. This specificity for sSKs was also observed in the b ...

[1] = tested on: ERK phosphorylation in silkworm brains; experiment: ERK phosphorylation (western blot), silkworm larval brains ex vivo; set-up: species or system Bombyx mori; conditions: FR900359 1 μM, 30 min; 100 nM BmsSK; silkworm larval brains
Description: HEK293 cells with Flag-BNGR-A9 were exposed to 100 nM BmsSK for different durations and then lysed using RIPA buffer (Beyotime, China). For ex vivo assays, brains from 5th instar silkworm larvae were treated with BmsSK (100 nM) for 1, 2, or 8 h, either with a pre-treatment of Gαq inhibitor FR900359 for 30 min or without it. After treatment, samples were lysed, homogenized, and their protein concentrations were determined with a BCA protein kit (Takara, Japan). For western blot analysis, equal amounts of protein lysate were used. Protein expression was analyzed using specific primary antibodies: rabbit monoclonal antibodies for total and phosphorylated ERK from Cell Signaling Technology (MA, USA).

BNGR-A9 [2] = experiment: Fura-2 AM-based Ca^2+ mobilization assay, BNGR-A9; format: cell-based, Bombyx mori; conditions: for Effect of Gαq/PLC inhibitor on BmsSK-triggered Ca^2+ mobilization: FR900359 1 μM or U73122 5 μM
Source text: (§1) The entire coding region of BNGR-A9 (NM_001134272.1) was obtained by PCR and subsequently cloned into pEGFP-N1 and pCMV-Flag vectors using the primers listed in Table S1. The Flag-BNGR-A9 construct was generated for functional assays, including CRE-luciferase, calcium mobilization, and ERK phosphorylation assays, while BNGR-A9-EGFP was created for receptor visualization purposes. Additionally, for expression in the BmN cell system, the BNGR-A9 gene was inserted into the pIZT/V5-His vector. All constructs were validated by DNA sequencing.
(§2) HEK293 cells were cultured with Dulbecco’s Modified Eagle’s Medium (Gibco, NY, USA) supplied with 10% Fetal bovine serum (Gibco, NY, USA) in a 37 °C humidified incubator containing 5% CO2. BmN cells were maintained in TC 100 insect medium (AppliChem, Darmstadt, Germany) supplied with 10% Fetal bovine serum in a 28 °C incubator. Both HEK293 and BmN cells were transfected with X-tremeGENE (Roche, Mannheim, Germany) according to the manufacturer’s instruction.
To monitor the changes of intracellular calcium, Fura-2 AM (Dojindo, Kumamoto, Japan) was utilized as the calcium indicator, following the methodology outlined in a previous study. Briefly, HEK293 cells stably expressing Flag-BNGR-A9 were exposed to various concentrations of Bombyx mori neuropeptides and measured using a fluorescence spectrometer (Tecan Infinite 200 PRO). Calcium levels were determined by the ratio of fluorescence excitation at 340 nm to that at 380 nm. If necessary, cells were pre-treated with U73122, FR900359, or KT5720 for 30 min prior to the initiation of the experiment. For assays involving BmN cells expressing pIZT-BNGR-A9, the procedures were conducted at 28 °C, and HBSS was replaced with HBM (Hepes-Buffered Medium: 140 mM NaCl, 5 mM KCl, 1 mM MgCl2, 1.2 mM Na2HPO4, 5 mM NaHCO3, 10 mM glucose, and 20 mM HEPES–NaOH, CaCl2 (1 mM), pH 6.2).
(§3) Data analysis was conducted using GraphPad Prism (San Diego, CA), with results presented as mean ± SEM. Statistical significance was assessed through Student’s t-test or two-way ANOVA with multiple comparisons, with p values below 0.05 denoted as significant (*p < 0.05, **p < 0.01, ***p < 0.001). Dose–response curves were generated via non-linear curve fitting. Adobe Photoshop was used to process images, ensuring uniform brightness and contrast settings across all conditions. All images and data provided represent findings from a minimum of three independent experiments.

BNGR-A9 [3] = experiment: CRE-driven luciferase reporter assay, BNGR-A9; format: cell-based, Bombyx mori; conditions: for Activation of BNGR-A9 (CRE-driven luciferase activity): 1 μM peptide, with or without forskolin (5 μM); for Activation of BNGR-A9 (CRE-driven luciferase activity) / EC50: 4 h, at least three independent experiments; for EC50: dose-response
Source text: as §1, §2
HEK293 and BmN cells were transfected with the different Bombyx receptors (Flag-BNGR-A9, -A24, -A32, or A33 for HEK293 cells, and pIZT-BNGR-A9, -A24, -A32, or A33 for BmN cells) along with the corresponding CRE-reporter plasmid. When cell confluence reached 90–95%, they were treated with various concentrations of Bombyx mori neuropeptides, with or without forskolin. Following a 4-h incubation period, cells were lysed, and luciferase activities were determined using a firefly luciferase kit (Beyotime, Shanghai, China).
as §3

BNGR-A9 [4] = experiment: cAMP ELISA in BNGR-A9-expressing HEK293 cells; format: cell-based, Bombyx mori; conditions: 1 μM, 15 min, IBMX pretreatment (300 μM, 1 h)
Description: 1. Measurement of cAMP accumulation
Cells were seeded in 24-well plates and incubated overnight. Prior to treatment, cells
were pre-treated with the phosphodiesterase inhibitor IBMX (300 μM) for 1 hour.
Subsequently, cells were treated with different Bombyx neuropeptides for 15 minutes.
The reaction was terminated by removing the medium, followed by the addition of
ice-cold PBS and a single wash. Cell lysis was performed, and cAMP formation was
assessed using a competitive binding technique based on an enzyme-linked
immunosorbent assay (ELISA) (Parameter cAMP assay, R&D, Minneapolis, USA)
following the manufacturer's instructions. The results were expressed as the fold
change in cAMP concentration compared to the control concentration in the
2. Determination of Glucose of hemolymph
Silkworm larvae were anesthetized by cooling on ice, after which hemolymph was
collected using a micropipette from an incision made at the abdominal leg.
Approximately 5 mg of phenylthiourea (to achieve a final concentration of 2.5% w/v)
was added to the hemolymph in a 1.5 ml Eppendorf tube to inhibit clotting.
Hemolymph samples from 10 insects were then centrifuged at 12,000 rpm for 10
minutes at 4 °C to sediment any particulates. The glucose concentration in the
hemolymph was determined using a glucose oxidase-peroxidase kit (Shanghai […]
by stimulation with 1μM BmnsSK or BmsSK for 15 min, and the cAMP level was determined […]

BNGR-A9 [5] = experiment: IP3 ELISA in BNGR-A9-expressing HEK293 cells; format: cell-based, Bombyx mori; conditions: 1 μM, 1 h
Description: Figure 6 Bombyx sulfated-sulfakinin mediated activation of BNGR-A9 via Gαq signaling pathway. (A and B) Effects of Gαq inhibitor FR900359 (1 μM) on the CRE-driven luciferase activities in BNGR-A9 expressing HEK293 (A) and BmN (B) cells. BNGR-A9 stable transfected cells were pretreated with FR900359 (1 μM) for 30 min and challenged with 100 nM BmsSK for 4 h. (C) Accumulation of IP3 in HEK293 cells expressing BNGR-A9 in response to Bombyx neuropeptides was assessed. Cells were pre-treated with serum-free DMEM for 1 h, followed by stimulation with 1 μM of the indicated Bombyx neuropeptides for 1 h. The level of IP3 in the supernatant was then determined using the IP3 immunoassay detection kit. (D, E) Effects of Gαq/PLC inhibitors on Flag-BNGR-A9 mediated increase of intracellular Ca^2+ level. Flag-BNGR-A9 expressing HEK293 (D) and BmN (E) cells were pretreated with Gαq inhibitorFR900359 (1 μM), U73122 (5 μM) for 30 min, and incubated with Fura-2 AM for 30 min, followed by challenging with 100 nM BmsSK. (F, G) effects of protein kinase A (PKA) inhibitor KT5720 on BmsSK initiated Ca^2+ in Flag-BNGR-A9-expressing cells. […] After 30 min incubation with Fura-2 AM, the cells were treated with 100 nM BmsSK, and detected with a fluorescence spectrometer. […] Data were analyzed by using a Student’s t-test (*p < 0.05; **p < 0.01). […]

[6] = molecular target: T1, Flag-BNGR-A9 (Bombyx mori neuropeptide G protein-coupled receptor A9) expressed in HEK293 cells (Bombyx mori) (UniProt B3XXM2)
T1 sequence: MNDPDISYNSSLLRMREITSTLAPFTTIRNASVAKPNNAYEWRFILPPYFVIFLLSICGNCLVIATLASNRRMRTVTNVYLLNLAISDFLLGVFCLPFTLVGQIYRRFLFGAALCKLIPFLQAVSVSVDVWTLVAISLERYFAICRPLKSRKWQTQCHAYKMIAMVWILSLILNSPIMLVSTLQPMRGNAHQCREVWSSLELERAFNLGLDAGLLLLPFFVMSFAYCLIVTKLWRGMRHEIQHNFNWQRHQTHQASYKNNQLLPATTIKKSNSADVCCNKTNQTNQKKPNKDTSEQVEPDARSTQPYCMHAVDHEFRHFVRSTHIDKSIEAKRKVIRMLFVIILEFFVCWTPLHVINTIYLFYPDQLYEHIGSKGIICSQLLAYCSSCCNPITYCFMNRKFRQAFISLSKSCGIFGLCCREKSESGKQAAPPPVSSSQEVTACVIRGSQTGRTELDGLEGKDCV

[7] = molecular target: T2, BNGR-A9 expressed in BmN cells (pIZT-BNGR-A9) (Bombyx mori) (UniProt B3XXM2)
T2 sequence: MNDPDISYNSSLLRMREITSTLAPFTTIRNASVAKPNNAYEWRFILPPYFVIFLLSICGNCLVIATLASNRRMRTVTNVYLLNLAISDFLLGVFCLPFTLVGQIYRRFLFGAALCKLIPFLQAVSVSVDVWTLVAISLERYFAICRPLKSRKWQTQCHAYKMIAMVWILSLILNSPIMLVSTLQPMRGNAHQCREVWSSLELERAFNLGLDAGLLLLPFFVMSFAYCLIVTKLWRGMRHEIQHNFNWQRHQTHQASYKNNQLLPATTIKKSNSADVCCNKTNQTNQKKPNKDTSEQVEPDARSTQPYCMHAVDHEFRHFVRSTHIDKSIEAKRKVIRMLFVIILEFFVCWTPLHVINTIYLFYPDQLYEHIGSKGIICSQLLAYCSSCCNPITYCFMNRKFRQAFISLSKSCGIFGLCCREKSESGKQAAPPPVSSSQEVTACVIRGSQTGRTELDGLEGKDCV

[8] = 30 min pretreatment, 100 nM BmsSK, HEK293 and BmN cells
[9] = CRE-driven luciferase, HEK293 and BmN cells

## sSK: tyrosine-sulfated SK, on Drosophila SK receptor (GDDTFDD[sY]GHLRF-NH2; N-terminus assumed; SMILES CC(C)C[C@H](NC(=O)[C@H](Cc1c[nH]cn1)NC(=O)CNC(=O)[C@H](Cc1ccc(OS(=O)(=O)O)cc1)NC(=O)[C@H](CC(=O)O)NC(=O)[C@H](CC(=O)O)NC(=O)[C@H](Cc1ccccc1)NC(=O)[C@@H](NC(=O)[C@H](CC(=O)O)NC(=O)[C@H](CC(=O)O)NC(=O)CN)[C@@H](C)O)C(=O)N[C@@H](CCCNC(=N)N)C(=O)N[C@@H](Cc1ccccc1)C(N)=O)
DSK-R1 (CCKLR-17D3)
  Affinity for DSK-R1: high affinity

## nsSK: nonsulfated SK, on Drosophila SK receptor (GDDTFDDYGHLRF-NH2)
DSK-R1 (CCKLR-17D3)
  Affinity for DSK-R1: low affinity

## FR900359 [reference compound]
[1]
  Effect of inhibitor on BmsSK-induced ERK phosphorylation: inhibited
BNGR-A9 [2]; [8]
  Effect of Gαq/PLC inhibitor on BmsSK-triggered Ca^2+ mobilization: completely blocked; also recorded: completely inhibited

## CCCCCCOC(=O)[C@]1(O)C[C@@H]2O[C@@]1(C)n1c3ccccc3c3c4c(c5c6ccccc6n2c5c31)C(=O)NC4 [KT5720, reference compound]
BNGR-A9 [2]; KT5720 10 μM, 30 min pretreatment, 100 nM BmsSK, HEK293 and BmN cells
  Effect of PKA inhibitor on BmsSK-induced Ca^2+ response: did not affect

## neuropeptide F [reference compound]
BNGR-A9 [3]; HEK293 and BmN cells
  Activation of BNGR-A9 (CRE-driven luciferase activity): did not significantly activate

## GDDTFDD^8YGHLRF-NH2 [BmnsSK, Bombyx mori Non-sulfated-sulfakinin, synthetic; nonsulfated version of GDDTFDD^8YGHLRF-NH2]
BNGR-A9 [3]; BmN cells stably expressing BNGR-A9
  EC50: 125 nM
BNGR-A9 [3]; [9]
  Activation efficacy relative to BmsSK: less than 30%
  Agonist type at BNGR-A9: partial agonist
BNGR-A9 [3]; HEK293 and BmN cells
  Activation of BNGR-A9 (CRE-driven luciferase activity): could activate BNGR-A9
BNGR-A9 [3]; HEK293 cells stably expressing BNGR-A9
  EC50: 119 nM
BNGR-A9 [2]; 1 μM peptide, Fura-2 AM, BNGR-A9-expressing HEK293 and BmN cells, three independent experiments
  Ca^2+ response: triggered responses in BNGR-A9-expressing cells
BNGR-A9 [4]
  Intracellular cAMP level: remained unchanged
BNGR-A9 [5]
  Intracellular IP3 level: significant elevation

## COc1ccc2c(c1)CC[C@@H]1[C@@H]2CC[C@]2(C)[C@@H](NCCCCCCN3C(=O)C=CC3=O)CC[C@@H]12 [U73122, reference compound]
BNGR-A9 [2]; [8]
  Effect of Gαq/PLC inhibitor on BmsSK-triggered Ca^2+ mobilization: completely blocked

B1: Bombyx mori Non-sulfated-sulfakinin (peptide)
peptide: GDDTFDDYGHLRF-NH2
[6]
  CRE-driven luciferase reporter, activation efficacy relative to BmsSK, HEK293 cells: < 30 % of BmsSK
  CRE-driven luciferase reporter, dose-response, HEK293 cells stably expressing BNGR-A9: 119 nM
[7]
  CRE-driven luciferase reporter, activation efficacy relative to BmsSK, BmN cells: < 30 % of BmsSK
  CRE-driven luciferase reporter, dose-response, BmN cells stably expressing BNGR-A9: 125 nM
